# From the supplement of paper PMC6004109
# Columns and labels:
# Conditions in all cases: temperature: 37 °C
# [1] = test system: Candida glabrata ZIM 2344 (RPMI); assay: FICI maximum (fractional inhibitory concentration index, Loewe) (dimensionless); higher = less synergy / more antagonism
# Experimental: (§1)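 CLSI M27-A3 checkerboard broth microdilution of an immunomodulatory drug (or amoxicillin) combined with an antifungal against S. cerevisiae and C. glabrata isolates. Growth was read as OD600 after incubation at 37 °C (48 h for the reported MICs). Reported quantities are the FICI (Loewe: MIC50 for azoles and immunomodulators, MIC90 for AMB; ≤0.5 synergy, ≥4 antagonism), as minimum and maximum over the surface, and the Bliss-independence sum of statistically significant ΔE (positive = synergy). Clinical isolates were tested in RPMI; C. glabrata ATCC 2001 and its pdr1Δ mutant were tested in YPD.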
# [2] = test system: Candida glabrata ZIM 2369 (RPMI); assay: as above
# Experimental: as §1
# [3] = test system: Candida glabrata ZIM 2385 (RPMI); assay: as above
# Experimental: as §1
# [4] = test system: Candida glabrata ZIM 2365 (RPMI); assay: as above
# Experimental: as §1
# [5] = test system: Saccharomyces cerevisiae ZIM 2247 (RPMI); assay: as above
# Experimental: as §1
# [6] = test system: Saccharomyces cerevisiae ZIM 2269 (RPMI); assay: as above
# Experimental: as §1
# [7] = test system: Saccharomyces cerevisiae ZIM 2566 (RPMI); assay: as above
# Experimental: as §1
# [8] = test system: Saccharomyces cerevisiae ZIM 2260 (RPMI); assay: as above
# Experimental: as §1
# [9] = test system: Saccharomyces cerevisiae ZIM 2558 (RPMI); assay: as above
# Experimental: as §1
# [10] = test system: Saccharomyces cerevisiae ZIM 2255 (RPMI); assay: as above
# Experimental: as §1
# [11] = test system: Candida glabrata ZIM 2389 (RPMI); assay: as above
# Experimental: as §1
# [12] = test system: Candida glabrata ZIM 2382 (RPMI); assay: as above
# Experimental: as §1
# [13] = test system: Candida glabrata ZIM 2344 (RPMI); assay: Bliss independence sum of statistically significant ΔE (measured minus predicted growth inhibition) over checkerboard surface (fraction (sum of ΔE; 1 = 100%)); higher = more synergy
# [14] = test system: Candida glabrata ZIM 2369 (RPMI); assay: as above
# [15] = test system: Candida glabrata ZIM 2385 (RPMI); assay: as above
# [16] = test system: Candida glabrata ZIM 2365 (RPMI); assay: as above
# [17] = test system: Saccharomyces cerevisiae ZIM 2247 (RPMI); assay: as above
# [18] = test system: Saccharomyces cerevisiae ZIM 2269 (RPMI); assay: as above
# [19] = test system: Saccharomyces cerevisiae ZIM 2566 (RPMI); assay: as above
# [20] = test system: Saccharomyces cerevisiae ZIM 2260 (RPMI); assay: as above
# [21] = test system: Saccharomyces cerevisiae ZIM 2558 (RPMI); assay: as above
# [22] = test system: Saccharomyces cerevisiae ZIM 2255 (RPMI); assay: as above
# [23] = test system: Candida glabrata ZIM 2389 (RPMI); assay: as above
# [24] = test system: Candida glabrata ZIM 2382 (RPMI); assay: as above
# [25] = test system: Candida glabrata ZIM 2389 (RPMI); assay: FICI minimum (fractional inhibitory concentration index, Loewe) (dimensionless); higher = less synergy / more antagonism
# Experimental: as §1
# [26] = test system: Candida glabrata ZIM 2382 (RPMI); assay: as above
# Experimental: as §1
compound,measurement,setting,value
COc1c(C)c2c(c(O)c1C/C=C(\C)CCC(=O)O)C(=O)OC2 [mycophenolic acid] + C[C@@H]1[C@H](O)[C@@H](C)/C=C/C=C/C=C/C=C/C=C/C=C/C=C/[C@H](O[C@@H]2O[C@H](C)[C@@H](O)[C@H](N)[C@@H]2O)C[C@@H]2O[C@](O)(C[C@@H](O)C[C@@H](O)[C@H](O)CC[C@@H](O)C[C@@H](O)CC(=O)O[C@H]1C)C[C@H](O)[C@H]2C(=O)O [amphotericin B],FICI maximum,[1],1.06
same,FICI maximum,[2],1.12
same,FICI maximum,[3],1.06
same,FICI maximum,[4],1.02
same,FICI maximum,[5],1.53
same,FICI maximum,[6],1.25
same,FICI maximum,[7],1.07
same,FICI maximum,[8],1.04
same,FICI maximum,[9],1.03
same,FICI maximum,[10],1.25
same,FICI maximum,[11],1.01
same,FICI maximum,[12],1.06
same,Bliss independence sum,[13],4.74
same,Bliss independence sum,[14],0.709
same,Bliss independence sum,[15],2.79
same,Bliss independence sum,[16],6.59
same,Bliss independence sum,[17],-2.18
same,Bliss independence sum,[18],6.09
same,Bliss independence sum,[19],-0.484
same,Bliss independence sum,[20],3.32
same,Bliss independence sum,[21],3.61
same,Bliss independence sum,[22],-0.43
same,Bliss independence sum,[23],4.37
same,Bliss independence sum,[24],1.76
same,FICI minimum,[25],0.531
same,FICI minimum,[26],0.5
COc1c(C)c2c(c(O)c1C/C=C(\C)CCC(=O)O)C(=O)OC2 [mycophenolic acid] + OC(Cn1cncn1)(Cn1cncn1)c1ccc(F)cc1F [fluconazole],FICI maximum,[1],1.25
same,FICI maximum,[2],4.25
same,FICI maximum,[3],2.25
same,FICI maximum,[4],8.5
same,FICI maximum,[5],2.53
same,FICI maximum,[6],2.25
same,FICI maximum,[7],2.27
same,FICI maximum,[8],2.02
same,FICI maximum,[9],4.25
same,FICI maximum,[10],2.02
same,FICI maximum,[11],2.25
same,FICI maximum,[12],4.25
same,Bliss independence sum,[13],6.94
same,Bliss independence sum,[14],-2.4
same,Bliss independence sum,[15],-0.722
same,Bliss independence sum,[16],-4.84
same,Bliss independence sum,[17],-2.82
same,Bliss independence sum,[18],-3.9
same,Bliss independence sum,[19],-0.316
same,Bliss independence sum,[20],-1.55
same,Bliss independence sum,[21],-8.75
same,Bliss independence sum,[22],-3.66
same,Bliss independence sum,[23],1.41
same,Bliss independence sum,[24],-1.7
same,FICI minimum,[25],1.01
same,FICI minimum,[26],1.01
C=CC[C@@H]1/C=C(\C)C[C@H](C)C[C@H](OC)[C@H]2O[C@@](O)(C(=O)C(=O)N3CCCC[C@H]3C(=O)O[C@H](/C(C)=C/[C@@H]3CC[C@@H](O)[C@H](OC)C3)[C@H](C)[C@@H](O)CC1=O)[C@H](C)C[C@@H]2OC [tacrolimus] + CCC(C)n1ncn(-c2ccc(N3CCN(c4ccc(OCC5COC(Cn6cncn6)(c6ccc(Cl)cc6Cl)O5)cc4)CC3)cc2)c1=O [itraconazole],FICI maximum,[1],0.5
same,FICI maximum,[2],0.5
same,FICI maximum,[3],0.5
same,FICI maximum,[4],1.01
same,FICI maximum,[5],0.52
same,FICI maximum,[6],2.5
same,FICI maximum,[7],1
same,FICI maximum,[8],0.5
same,FICI maximum,[9],0.51
same,FICI maximum,[10],0.502
same,FICI maximum,[11],0.126
same,FICI maximum,[12],1
same,Bliss independence sum,[13],5.44
same,Bliss independence sum,[14],3.73
same,Bliss independence sum,[15],5.63
same,Bliss independence sum,[16],2.36
same,Bliss independence sum,[17],6.82
same,Bliss independence sum,[18],4.75
same,Bliss independence sum,[19],9.53
same,Bliss independence sum,[20],10.8
same,Bliss independence sum,[21],8.75
same,Bliss independence sum,[22],7.07
same,Bliss independence sum,[23],8.47
same,Bliss independence sum,[24],1.94
same,FICI minimum,[25],0.126
same,FICI minimum,[26],1
CN(Cc1cnc2nc(N)nc(N)c2n1)c1ccc(C(=O)N[C@@H](CCC(=O)O)C(=O)O)cc1 [methotrexate] + OC(Cn1cncn1)(Cn1cncn1)c1ccc(F)cc1F [fluconazole],FICI maximum,[1],0.656
same,FICI maximum,[2],1.16
same,FICI maximum,[3],2.16
same,FICI maximum,[4],1.16
same,FICI maximum,[5],1.16
same,FICI maximum,[6],1.08
same,FICI maximum,[7],2.16
same,FICI maximum,[8],2
same,FICI maximum,[9],1.04
same,FICI maximum,[10],1.08
same,FICI maximum,[11],1.16
same,FICI maximum,[12],2.16
same,Bliss independence sum,[13],1.94
same,Bliss independence sum,[14],0.22
same,Bliss independence sum,[15],-0.819
same,Bliss independence sum,[16],0.394
same,Bliss independence sum,[17],-0.857
same,Bliss independence sum,[18],-1.86
same,Bliss independence sum,[19],-4.52
same,Bliss independence sum,[20],-0.0461
same,Bliss independence sum,[21],8.35
same,Bliss independence sum,[22],-0.754
same,Bliss independence sum,[23],0.272
same,Bliss independence sum,[24],-1.36
same,FICI minimum,[25],0.505
same,FICI minimum,[26],1
